For test [1], the target named is T1, Human V1b receptor (Homo sapiens, UniProt P47901).
T1 sequence (P47901 1-424): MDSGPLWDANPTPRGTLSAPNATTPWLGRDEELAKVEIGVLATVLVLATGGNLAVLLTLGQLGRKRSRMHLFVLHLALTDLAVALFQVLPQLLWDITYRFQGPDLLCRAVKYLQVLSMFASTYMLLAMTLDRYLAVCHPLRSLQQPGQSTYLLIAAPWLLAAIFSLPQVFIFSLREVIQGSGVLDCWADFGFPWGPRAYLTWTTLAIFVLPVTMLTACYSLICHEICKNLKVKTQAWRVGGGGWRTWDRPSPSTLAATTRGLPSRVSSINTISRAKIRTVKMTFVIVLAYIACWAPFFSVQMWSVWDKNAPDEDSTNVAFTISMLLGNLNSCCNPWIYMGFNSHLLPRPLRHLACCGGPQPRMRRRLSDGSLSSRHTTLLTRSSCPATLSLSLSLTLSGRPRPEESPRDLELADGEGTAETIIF
The experiment in a line: Measurement of V1b receptor antagonistic activity (AVP-induced fluorescence, Fluo-4, FDSS). The class given is cell-based. Also on record: expressed in transfected cells. How it is done: Measurement of V1b Receptor Antagonistic Activity
CHO cells (ATCC) stably expressing human V1b receptor were cultured in Ham's F-12 medium (containing 10% FBS and 0.5 mg/mL Geneticin). The cells were seeded the day before the test at 20,000 cells/well in a 96-well poly-D-lysine coated black plate. On the day of the test, the culture medium was removed, and a loading solution (1×HBSS, 10 mmol/L HEPES, 0.1% bovine serum albumin, 1.25 mmol/L Probenecid, 0.02% Pluronic F-127, 1.5 μmol/L Fluo-4-AM, pH 7.4) was added to each well, followed by incubation in a CO2 incubator for 1 hour. After the incubation, the loading solution was removed. A test solution (1×HBSS, 10 mmol/L HEPES, 0.1% bovine serum albumin, 1.25 mmol/L Probenecid, pH 7.4) containing any one of test compounds was added to wells, followed by incubation in a CO2 incubator for 30 minutes. The test compound was serially diluted with DMSO so as to be assayed at a final concentration of 0.1 nmol/L to 1 μmol/L. After the incubation, measurement of fluorescence intensity levels and addition of AVP were performed with Functional Drug Screening System (FDSS, Hamamatsu Photonics K.K.). […] The fluorescence level in the well not containing any test compound and AVP was defined as 0%, and the fluorescence level in the well not containing any test compound but containing AVP was defined as 100%. A dose-response curve was plotted from fluorescence levels after the addition of AVP in the presence of a test compound at various concentrations, and the 50% inhibitory concentration (IC50 value) of the compound was calculated.

For test [2], the target named is T1, Human V1b receptor. Put plainly: Binding test for V1b receptor ([3H]AVP displacement, crude membrane preparation). Also on record: expressed in transfected cells; host or cells: 293FT cells (Invitrogen), transient expression; crude membrane preparation. As to conditions: [3H]AVP 0.4 to 1 nmol/L; membranes of 293FT cells transiently expressing human V1b receptor; room temperature, 60 minutes. A digest of the protocol:
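Crude membranes from 293FT cells transiently expressing human V1b, in 50 mmol/L Tris-HCl pH 7.4 with 10 mmol/L MgCl2 and 0.1% BSA, incubated with compound (0.01 nmol/L–1 μmol/L) and [3H]AVP (0.4–1 nmol/L) for 60 min at room temperature. Filter-bound radioactivity counted; 10 μmol/L unlabeled AVP defined 0%. IC50 from dose-response curve.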

Setting [3] is: CHO cells stably expressing human V1b receptor, AVP 2.5 nmol/L, 30 minutes preincubation, read-out: IC50 value (V1b receptor antagonistic activity).

Broadly, the IC50 is the concentration needed to halve the response being measured.

In the case of `CC(C)NC(=O)Cn1c(-c2cccc(Cl)c2)nn(-c2ccc(CCN3CCOCC3)cc2)c1=O` [Aa-1, 2-[3-(3-Chlorophenyl)-1-{4-[2-(morpholin-4-yl)ethyl]phenyl}-5-oxo-1,5-dihydro-4H-1,2,4-triazol-4-yl]-N-(propan-2-yl)acetamide], the IC50 in test [1] (setting [3]) was 9.3 nM; in test [2], 8.6 nM. Take `CC(C)NC(=O)Cn1c(-c2cccc(Cl)c2)nn(-c2ccc(CCN3C4CCC3CC(O)C4)cc2)c1=O` (centres unmarked) [Aa-8, 2-[3-(3-Chlorophenyl)-1-{4-[2-(3-hydroxy-8-azabicyclo[3.2.1]oct-8-yl)ethyl]phenyl}-5-oxo-1,5-dihydro-4H-1,2,4-triazol-4-yl]-N-(propan-2-yl)acetamide]: the IC50 in test [1] (setting [3]) stood at 23 nM; in test [2], 4.1 nM. Consider `CC(C)NC(=O)Cn1c(-c2cccc(Cl)c2)nn(-c2ccc(CCN3C4CCC3COC4)cc2)c1=O` [Aa-10, 2-[3-(3-Chlorophenyl)-1-{4-[2-(3-oxa-8-azabicyclo[3.2.1]oct-8-yl)ethyl]phenyl}-5-oxo-1,5-dihydro-4H-1,2,4-triazol-4-yl]-N-(propan-2-yl)acetamide], for which the IC50 in test [1] was 20 nM; in test [2] it was 4.7 nM.

On to `CC(C)NC(=O)Cn1c(-c2cccc(Cl)c2)nn(-c2ccc(CCN3CCOCC3)cn2)c1=O` [Ab-2, 2-[3-(3-Chlorophenyl)-1-{5-[2-(morpholin-4-yl)ethyl]pyridin-2-yl}-5-oxo-1,5-dihydro-4H-1,2,4-triazol-4-yl]-N-(propan-2-yl)acetamide], for which the IC50 in test [1] (setting [3]) was found to be 13 nM; in test [2] it was 41 nM. As for `CC(C)NC(=O)Cn1c(-c2cccc(Cl)c2)nn(-c2ccc(CCN3C4CCC3COC4)cn2)c1=O` [Ab-5, 2-[3-(3-Chlorophenyl)-1-{5-[2-(3-oxa-8-azabicyclo[3.2.1]oct-8-yl)ethyl]pyridin-2-yl}-5-oxo-1,5-dihydro-4H-1,2,4-triazol-4-yl]-N-(propan-2-yl)acetamide], the IC50 in test [1] (setting [3]) amounted to 29 nM; in test [2] it was 8.6 nM. On the same counts, the results for `COc1cccc(-c2nn(-c3ccc(CCN4CCOCC4)cc3)c(=O)n2CC(=O)NC(C)C)c1` [Ba-2, 2-[3-(3-Methoxyphenyl)-1-{4-[2-(morpholin-4-yl)ethyl]phenyl}-5-oxo-1,5-dihydro-4H-1,2,4-triazol-4-yl]-N-(propan-2-yl)acetamide] are 30 nM and 19 nM.

For the compound `COc1cc(-c2nn(-c3ccc(CCN4CCOCC4)cc3)c(=O)n2CC(=O)NC(C)C)ccc1F` [Ca-2, 2-[3-(4-Fluoro-3-methoxyphenyl)-1-{4-[2-(morpholin-4-yl)ethyl]phenyl}-5-oxo-1,5-dihydro-4H-1,2,4-triazol-4-yl]-N-(propan-2-yl)acetamide], the IC50 in test [1] (setting [3]) is 11 nM; in test [2], 10 nM. For the compound `COc1cc(-c2nn(-c3ccc(CCN4C5CCC4CC(O)C5)cc3)c(=O)n2CC(=O)NC(C)C)ccc1F` (centres unmarked) [Ca-3, 2-[3-(4-Fluoro-3-methoxyphenyl)-1-{4-[2-(3-hydroxy-8-azabicyclo[3.2.1]oct-8-yl)ethyl]phenyl}-5-oxo-1,5-dihydro-4H-1,2,4-triazol-4-yl]-N-(propan-2-yl)acetamide], the IC50 worked out at 16 nM in test [1] (setting [3]) and 6 nM in test [2]. In the case of `COc1cc(-c2nn(-c3ccc(CCN4CCOCC4)cn3)c(=O)n2CC(=O)NC(C)C)ccc1F` [Cb-2, 2-[3-(4-Fluoro-3-methoxyphenyl)-1-{5-[2-(morpholin-4-yl)ethyl]pyridin-2-yl}-5-oxo-1,5-dihydro-4H-1,2,4-triazol-4-yl]-N-(propan-2-yl)acetamide], the IC50 stood at 26 nM in test [1] (setting [3]) and 17 nM in test [2]. Take `CC(C)NC(=O)Cn1c(-c2ccc(F)c(Cl)c2)nn(-c2ccc(CCN3CCOCC3)cc2)c1=O` [Da-2, 2-[3-(3-Chloro-4-fluorophenyl)-1-{4-[2-(morpholin-4-yl)ethyl]phenyl}-5-oxo-1,5-dihydro-4H-1,2,4-triazol-4-yl]-N-(propan-2-yl)acetamide]: the IC50 in test [1] (setting [3]) was 6.3 nM; in test [2], 4.3 nM. For the compound `CC(C)NC(=O)Cn1c(-c2ccc(F)c(Cl)c2)nn(-c2ccc(CCN3C4CCC3COC4)cc2)c1=O` [Da-5, 2-[3-(3-Chloro-4-fluorophenyl)-1-{4-[2-(3-oxa-8-azabicyclo[3.2.1]oct-8-yl)ethyl]phenyl}-5-oxo-1,5-dihydro-4H-1,2,4-triazol-4-yl]-N-(propan-2-yl)acetamide], the figures for the IC50 in test [1] (setting [3]) and in test [2] were 6 nM and 2.5 nM, respectively.

Compound `CC(C)NC(=O)Cn1c(-c2ccc(F)c(Cl)c2)nn(-c2ccc(CCN3CCCCC3)cn2)c1=O` [Db-1, 2-[3-(3-Chloro-4-fluorophenyl)-5-oxo-1-{5-[2-(piperidin-1-yl)ethyl]pyridin-2-yl}-1,5-dihydro-4H-1,2,4-triazol-4-yl]-N-(propan-2-yl)acetamide] yielded an IC50 in test [2] of 16 nM.

Compound `CC(C)NC(=O)Cn1c(-c2ccc(F)c(Cl)c2)nn(-c2ccc(CCN3CCOCC3)cn2)c1=O` [Db-2, 2-[3-(3-Chloro-4-fluorophenyl)-1-{5-[2-(morpholin-4-yl)ethyl]pyridin-2-yl}-5-oxo-1,5-dihydro-4H-1,2,4-triazol-4-yl]-N-(propan-2-yl)acetamide] displayed an IC50 in test [2] of 7.1 nM. Consider `CC(C)NC(=O)Cn1c(-c2ccc(F)c(Cl)c2)nn(-c2ccc(CCN3CC4(COC4)C3)cn2)c1=O` [Db-3, 2-[3-(3-Chloro-4-fluorophenyl)-1-{5-[2-(2-oxa-6-azaspiro[3.3]hept-6-yl)ethyl]pyridin-2-yl}-5-oxo-1,5-dihydro-4H-1,2,4-triazol-4-yl]-N-(propan-2-yl)acetamide], for which the IC50 in test [2] was determined as 10 nM. Same read-out and setting: the value for `CC(C)NC(=O)Cn1c(-c2ccc(F)c(Cl)c2)nn(-c2ccc(CCN3C4CCC3COC4)cn2)c1=O` [Db-4, 2-[3-(3-Chloro-4-fluorophenyl)-1-{5-[2-(3-oxa-8-azabicyclo[3.2.1]oct-8-yl)ethyl]pyridin-2-yl}-5-oxo-1,5-dihydro-4H-1,2,4-triazol-4-yl]-N-(propan-2-yl)acetamide] was 2.9 nM. The same measure, in the same setting: the value for `CC(C)NC(=O)Cn1c(-c2cccc(C#N)c2)nn(-c2ccc(CCN3CCOCC3)cc2)c1=O` [Ea-2, 2-[3-(3-Cyanophenyl)-1-{4-[2-(morpholin-4-yl)ethyl]phenyl}-5-oxo-1,5-dihydro-4H-1,2,4-triazol-4-yl]-N-(propan-2-yl)acetamide] was 48 nM. In test [2], `CC(C)NC(=O)Cn1c(-c2cccc(F)c2)nn(-c2ccc(CCN3CCOCC3)cc2)c1=O` [Fa-1, 2-[3-(3-Fluorophenyl)-1-{4-[2-(morpholin-4-yl)ethyl]phenyl}-5-oxo-1,5-dihydro-4H-1,2,4-triazol-4-yl]-N-(propan-2-yl)acetamide] registered an IC50 of 46 nM. Consider `CC(C)NC(=O)Cn1c(-c2ccccc2)nn(-c2ccc(CCN3CCOCC3)cc2)c1=O` [Ga-1, 2-(1-{4-[2-(Morpholin-4-yl)ethyl]phenyl}-5-oxo-3-phenyl-1,5-dihydro-4H-1,2,4-triazol-4-yl)-N-(propan-2-yl)acetamide], for which the IC50 in test [2] came to 114 nM. Take `CC(C)NC(=O)Cn1c(-c2cccc(S(C)(=O)=O)c2)nn(-c2ccc(CCN3CCOCC3)cc2)c1=O` [Ia-1, 2-(3-[3-(Methylsulfonyl)phenyl]-1-{4-[2-(morpholin-4-yl)ethyl]phenyl}-5-oxo-1,5-dihydro-4H-1,2,4-triazol-4-yl)-N-(propan-2-yl)acetamide]: the IC50 in test [2] amounted to 46 nM.

In the case of `COc1cccc(-c2nn(-c3ccc(CCN4CCOCC4)cc3)c(=O)n2CC(=O)NC(C)C)n1` [Ja-1, 2-[3-(6-Methoxypyridin-2-yl)-1-{4-[2-(morpholin-4-yl)ethyl]phenyl}-5-oxo-1,5-dihydro-4H-1,2,4-triazol-4-yl]-N-(propan-2-yl)acetamide], the IC50 in test [2] was 16 nM. The same measure, in the same setting: the value for `COc1cccc(-c2nn(-c3ccc(CCN4C5CCC4COC5)cc3)c(=O)n2CC(=O)NC(C)C)n1` [Ja-2, 2-[3-(6-Methoxypyridin-2-yl)-1-{4-[2-(3-oxa-8-azabicyclo[3.2.1]oct-8-yl)ethyl]phenyl}-5-oxo-1,5-dihydro-4H-1,2,4-triazol-4-yl]-N-(propan-2-yl)acetamide] was 20 nM.

(Values after patent publication US9193695B2, “1, 2, 4-triazolone derivative and use thereof as an antagonist on the arginine-vasopressin 1B receptor” (TAISHO PHARMACEUTICAL CO., LTD., priority 2010, dated 2015).)
